Experiments:
Hepatotoxicity [1] = test system: Hepatotoxicity;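 for HepSE Combined Scores: combined hepatic side effect score as listed in the training data of the Drug Induced Liver Injury Prediction System (DILIps)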;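 for HepSE cholecystitis: Cholecystitis-related hepatic side effect score drawn from the DILIps (drug-induced liver injury prediction) training data set; call rule not given here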;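 for HepSE cholelithiasis: hepatic side effect score for cholelithiasis, drawn from the DILIps training data for predicting drug-induced liver injury; call rule not given here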;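 for HepSE hepatic necrosis: score of hepatic side effects for hepatic necrosis, drawn from the training data of DILIps, a prediction system for drug-induced liver injury; call rule not given here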;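 for HepSE hepatomegaly: hepatic side effect score for hepatomegaly, taken from the training set of the DILIps drug-induced liver injury prediction system; call rule not given here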;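 for HepSE jaundice: Jaundice-related hepatic side-effect score drawn from the training data of the DILIps (drug-induced liver injury prediction system); call rule not given here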; for HepSE liver disease: call rule not given here
Hepatotoxicity [2] = test system: Hepatotoxicity; remark: listed apart in the source;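 for HepSE cholecystitis: Cholecystitis-related hepatic side effect score drawn from the DILIps (drug-induced liver injury prediction) training data set; call rule not given here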;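 for HepSE cholelithiasis: hepatic side effect score for cholelithiasis, drawn from the DILIps training data for predicting drug-induced liver injury; call rule not given here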;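 for HepSE hepatic necrosis: score of hepatic side effects for hepatic necrosis, drawn from the training data of DILIps, a prediction system for drug-induced liver injury; call rule not given here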;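 for HepSE hepatomegaly: hepatic side effect score for hepatomegaly, taken from the training set of the DILIps drug-induced liver injury prediction system; call rule not given here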;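 for HepSE jaundice: Jaundice-related hepatic side-effect score drawn from the training data of the DILIps (drug-induced liver injury prediction system); call rule not given here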; for HepSE liver disease: call rule not given here
Hepatotoxicity [3] = test system: Hepatotoxicity; remark: listed apart in the source;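 for HepSE cholecystitis: Cholecystitis-related hepatic side effect score drawn from the DILIps (drug-induced liver injury prediction) training data set; call rule not given here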;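 for HepSE cholelithiasis: hepatic side effect score for cholelithiasis, drawn from the DILIps training data for predicting drug-induced liver injury; call rule not given here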;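 for HepSE hepatic necrosis: score of hepatic side effects for hepatic necrosis, drawn from the training data of DILIps, a prediction system for drug-induced liver injury; call rule not given here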;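 for HepSE hepatomegaly: hepatic side effect score for hepatomegaly, taken from the training set of the DILIps drug-induced liver injury prediction system; call rule not given here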;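 for HepSE jaundice: Jaundice-related hepatic side-effect score drawn from the training data of the DILIps (drug-induced liver injury prediction system); call rule not given here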; for HepSE liver disease: call rule not given here
Hepatotoxicity [4] = test system: Hepatotoxicity; remark: listed apart in the source;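 for HepSE cholecystitis: Cholecystitis-related hepatic side effect score drawn from the DILIps (drug-induced liver injury prediction) training data set; call rule not given here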;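 for HepSE cholelithiasis: hepatic side effect score for cholelithiasis, drawn from the DILIps training data for predicting drug-induced liver injury; call rule not given here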;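 for HepSE hepatic necrosis: score of hepatic side effects for hepatic necrosis, drawn from the training data of DILIps, a prediction system for drug-induced liver injury; call rule not given here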;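 for HepSE hepatomegaly: hepatic side effect score for hepatomegaly, taken from the training set of the DILIps drug-induced liver injury prediction system; call rule not given here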;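 for HepSE jaundice: Jaundice-related hepatic side-effect score drawn from the training data of the DILIps (drug-induced liver injury prediction system); call rule not given here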; for HepSE liver disease: call rule not given here
Hepatotoxicity [5] = test system: Hepatotoxicity; remark: listed apart in the source; for HepSE liver disease: call rule not given here
Hepatotoxicity [6] = test system: Hepatotoxicity; remark: listed apart in the source; for HepSE liver disease: call rule not given here
Hepatotoxicity [7] = test system: Hepatotoxicity; remark: listed apart in the source
Hepatotoxicity [8] = test system: Hepatotoxicity; remark: listed apart in the source
Hepatotoxicity [9] = test system: Hepatotoxicity; remark: listed apart in the source
Hepatotoxicity [10] = test system: Hepatotoxicity; remark: listed apart in the source
Hepatotoxicity [11] = test system: Hepatotoxicity; remark: listed apart in the source
Hepatotoxicity [12] = test system: Hepatotoxicity; remark: listed apart in the source
Hepatotoxicity [13] = test system: Hepatotoxicity; remark: listed apart in the source
Hepatotoxicity [14] = test system: Hepatotoxicity; remark: listed apart in the source

## CCCCC(=O)OCC(=O)[C@]1(O)Cc2c(O)c3c(c(O)c2[C@@H](O[C@H]2C[C@H](NC(=O)C(F)(F)F)[C@H](O)[C@H](C)O2)C1)C(=O)c1c(OC)cccc1C3=O [VALRUBICIN]
Hepatotoxicity [1]
  HepSE_cholelithiasis: 0
Hepatotoxicity [2]
  HepSE_liver disease: 0
Hepatotoxicity [3]
  HepSE_hepatic necrosis: 0
Hepatotoxicity [4]
  HepSE_hepatomegaly: 0
Hepatotoxicity [5]
  HepSE_liver fatty: 0
Hepatotoxicity [6]
  HepSE_bilirubinemia: 0
Hepatotoxicity [7]
  HepSE_cholecystitis: 0
Hepatotoxicity [8]
  HepSE_jaundice: 0
Hepatotoxicity [9]
  HepSE_Combined Scores: 0
Hepatotoxicity [10]
  HepSE_liver function tests abnormal: 0
Hepatotoxicity [11]
  HepSE_elevated liver function tests: 0
Hepatotoxicity [12]
  HepSE_hepatitis: 0
Hepatotoxicity [13]
  HepSE_hepatic failure: 0
Hepatotoxicity [14]
  HepSE_cirrhosis: 0

## CN[C@H](CC(C)C)C(=O)N[C@H]1C(=O)N[C@@H](CC(N)=O)C(=O)N[C@H]2C(=O)N[C@H]3C(=O)N[C@H](C(=O)N[C@H](C(=O)O)c4cc(O)cc(O)c4-c4cc3ccc4O)[C@H](O)c3ccc(c(Cl)c3)Oc3cc2cc(c3O[C@@H]2O[C@H](CO)[C@@H](O)[C@H](O)[C@H]2O[C@H]2C[C@](C)(N)[C@H](O)[C@H](C)O2)Oc2ccc(cc2Cl)[C@H]1O [VANCOMYCIN]
Hepatotoxicity [1]
  HepSE_cholelithiasis: 0
Hepatotoxicity [2]
  HepSE_liver disease: 0
Hepatotoxicity [3]
  HepSE_hepatic necrosis: 0
Hepatotoxicity [4]
  HepSE_hepatomegaly: 0
Hepatotoxicity [5]
  HepSE_liver fatty: 0
Hepatotoxicity [6]
  HepSE_bilirubinemia: 0
Hepatotoxicity [7]
  HepSE_cholecystitis: 0
Hepatotoxicity [8]
  HepSE_jaundice: 0
Hepatotoxicity [9]
  HepSE_Combined Scores: 0
Hepatotoxicity [10]
  HepSE_liver function tests abnormal: 0
Hepatotoxicity [11]
  HepSE_elevated liver function tests: 0
Hepatotoxicity [12]
  HepSE_hepatitis: 0
Hepatotoxicity [13]
  HepSE_hepatic failure: 0
Hepatotoxicity [14]
  HepSE_cirrhosis: 0

## c1cnc2cc3c(cc2n1)[C@@H]1CNC[C@H]3C1 [VARENICLINE]
Hepatotoxicity [1]
  HepSE_cholelithiasis: 0
Hepatotoxicity [2]
  HepSE_liver disease: 0
Hepatotoxicity [3]
  HepSE_hepatic necrosis: 0
Hepatotoxicity [4]
  HepSE_hepatomegaly: 0
Hepatotoxicity [5]
  HepSE_liver fatty: 0
Hepatotoxicity [6]
  HepSE_bilirubinemia: 0
Hepatotoxicity [7]
  HepSE_cholecystitis: 0
Hepatotoxicity [8]
  HepSE_jaundice: 0
Hepatotoxicity [9]
  HepSE_Combined Scores: 1
Hepatotoxicity [10]
  HepSE_liver function tests abnormal: 1
Hepatotoxicity [11]
  HepSE_elevated liver function tests: 0
Hepatotoxicity [12]
  HepSE_hepatitis: 0
Hepatotoxicity [13]
  HepSE_hepatic failure: 0
Hepatotoxicity [14]
  HepSE_cirrhosis: 0

## CC(=O)O[C@H]1C[C@@H]2CC[C@@H]3[C@H](CC[C@@]4(C)[C@H]3C[C@H]([N+]3(C)CCCCC3)[C@@H]4OC(C)=O)[C@@]2(C)C[C@@H]1N1CCCCC1 [VECURONIUM]
Hepatotoxicity [1]
  HepSE_cholelithiasis: 0
Hepatotoxicity [2]
  HepSE_liver disease: 0
Hepatotoxicity [3]
  HepSE_hepatic necrosis: 0
Hepatotoxicity [4]
  HepSE_hepatomegaly: 0
Hepatotoxicity [5]
  HepSE_liver fatty: 0
Hepatotoxicity [6]
  HepSE_bilirubinemia: 0
Hepatotoxicity [7]
  HepSE_cholecystitis: 0
Hepatotoxicity [8]
  HepSE_jaundice: 0
Hepatotoxicity [9]
  HepSE_Combined Scores: 0
Hepatotoxicity [10]
  HepSE_liver function tests abnormal: 0
Hepatotoxicity [11]
  HepSE_elevated liver function tests: 0
Hepatotoxicity [12]
  HepSE_hepatitis: 0
Hepatotoxicity [13]
  HepSE_hepatic failure: 0
Hepatotoxicity [14]
  HepSE_cirrhosis: 0

## COc1ccc(C(CN(C)C)C2(O)CCCCC2)cc1 (centres undefined) [VENLAFAXINE]
Hepatotoxicity [1]
  HepSE_cholelithiasis: 1
Hepatotoxicity [2]
  HepSE_liver disease: 0
Hepatotoxicity [3]
  HepSE_hepatic necrosis: 0
Hepatotoxicity [4]
  HepSE_hepatomegaly: 0
Hepatotoxicity [5]
  HepSE_liver fatty: 1
Hepatotoxicity [6]
  HepSE_bilirubinemia: 1
Hepatotoxicity [7]
  HepSE_cholecystitis: 1
Hepatotoxicity [8]
  HepSE_jaundice: 1
Hepatotoxicity [9]
  HepSE_Combined Scores: 7
Hepatotoxicity [10]
  HepSE_liver function tests abnormal: 0
Hepatotoxicity [11]
  HepSE_elevated liver function tests: 0
Hepatotoxicity [12]
  HepSE_hepatitis: 1
Hepatotoxicity [13]
  HepSE_hepatic failure: 0
Hepatotoxicity [14]
  HepSE_cirrhosis: 1

## C=CC(N)CCC(=O)O (centres undefined) [VIGABATRIN]
Hepatotoxicity [1]
  HepSE_cholelithiasis: 0
Hepatotoxicity [2]
  HepSE_liver disease: 0
Hepatotoxicity [3]
  HepSE_hepatic necrosis: 0
Hepatotoxicity [4]
  HepSE_hepatomegaly: 0
Hepatotoxicity [5]
  HepSE_liver fatty: 0
Hepatotoxicity [6]
  HepSE_bilirubinemia: 0
Hepatotoxicity [7]
  HepSE_cholecystitis: 0
Hepatotoxicity [8]
  HepSE_jaundice: 0
Hepatotoxicity [9]
  HepSE_Combined Scores: 0
Hepatotoxicity [10]
  HepSE_liver function tests abnormal: 0
Hepatotoxicity [11]
  HepSE_elevated liver function tests: 0
Hepatotoxicity [12]
  HepSE_hepatitis: 0
Hepatotoxicity [13]
  HepSE_hepatic failure: 0
Hepatotoxicity [14]
  HepSE_cirrhosis: 0

## CC[C@]1(O)C[C@@H]2CN(CCc3c([nH]c4ccccc34)[C@@](C(=O)OC)(c3cc4c(cc3OC)N(C)[C@H]3[C@@](O)(C(=O)OC)[C@H](OC(C)=O)[C@]5(CC)C=CCN6CC[C@]43[C@@H]65)C2)C1 [VINBLASTINE]
Hepatotoxicity [1]
  HepSE_cholelithiasis: 0
Hepatotoxicity [2]
  HepSE_liver disease: 0
Hepatotoxicity [3]
  HepSE_hepatic necrosis: 0
Hepatotoxicity [4]
  HepSE_hepatomegaly: 0
Hepatotoxicity [5]
  HepSE_liver fatty: 0
Hepatotoxicity [6]
  HepSE_bilirubinemia: 0
Hepatotoxicity [7]
  HepSE_cholecystitis: 0
Hepatotoxicity [8]
  HepSE_jaundice: 0
Hepatotoxicity [9]
  HepSE_Combined Scores: 0
Hepatotoxicity [10]
  HepSE_liver function tests abnormal: 0
Hepatotoxicity [11]
  HepSE_elevated liver function tests: 0
Hepatotoxicity [12]
  HepSE_hepatitis: 0
Hepatotoxicity [13]
  HepSE_hepatic failure: 0
Hepatotoxicity [14]
  HepSE_cirrhosis: 0

## CC[C@]1(O)C[C@H]2CN(CCc3c([nH]c4ccccc34)[C@@](C(=O)OC)(c3cc4c(cc3OC)N(C=O)[C@H]3[C@@](O)(C(=O)OC)[C@H](OC(C)=O)[C@]5(CC)C=CCN6CC[C@]43[C@@H]65)C2)C1 [VINCRISTINE]
Hepatotoxicity [1]
  HepSE_cholelithiasis: 0
Hepatotoxicity [2]
  HepSE_liver disease: 0
Hepatotoxicity [3]
  HepSE_hepatic necrosis: 0
Hepatotoxicity [4]
  HepSE_hepatomegaly: 0
Hepatotoxicity [5]
  HepSE_liver fatty: 0
Hepatotoxicity [6]
  HepSE_bilirubinemia: 0
Hepatotoxicity [7]
  HepSE_cholecystitis: 0
Hepatotoxicity [8]
  HepSE_jaundice: 0
Hepatotoxicity [9]
  HepSE_Combined Scores: 0
Hepatotoxicity [10]
  HepSE_liver function tests abnormal: 0
Hepatotoxicity [11]
  HepSE_elevated liver function tests: 0
Hepatotoxicity [12]
  HepSE_hepatitis: 0
Hepatotoxicity [13]
  HepSE_hepatic failure: 0
Hepatotoxicity [14]
  HepSE_cirrhosis: 0

## CCC1=C[C@@H]2CN(C1)Cc1c([nH]c3ccccc13)[C@@](C(=O)OC)(c1cc3c(cc1OC)N(C)[C@H]1[C@@](O)(C(=O)OC)[C@H](OC(C)=O)[C@]4(CC)C=CCN5CC[C@]31[C@@H]54)C2 [VINORELBINE]
Hepatotoxicity [1]
  HepSE_cholelithiasis: 0
Hepatotoxicity [2]
  HepSE_liver disease: 0
Hepatotoxicity [3]
  HepSE_hepatic necrosis: 0
Hepatotoxicity [4]
  HepSE_hepatomegaly: 0
Hepatotoxicity [5]
  HepSE_liver fatty: 0
Hepatotoxicity [6]
  HepSE_bilirubinemia: 0
Hepatotoxicity [7]
  HepSE_cholecystitis: 0
Hepatotoxicity [8]
  HepSE_jaundice: 0
Hepatotoxicity [9]
  HepSE_Combined Scores: 0
Hepatotoxicity [10]
  HepSE_liver function tests abnormal: 0
Hepatotoxicity [11]
  HepSE_elevated liver function tests: 0
Hepatotoxicity [12]
  HepSE_hepatitis: 0
Hepatotoxicity [13]
  HepSE_hepatic failure: 0
Hepatotoxicity [14]
  HepSE_cirrhosis: 0

## C[C@@H](c1ncncc1F)[C@](O)(Cn1cncn1)c1ccc(F)cc1F [VORICONAZOLE]
Hepatotoxicity [1]
  HepSE_cholelithiasis: 1
Hepatotoxicity [2]
  HepSE_liver disease: 1
Hepatotoxicity [3]
  HepSE_hepatic necrosis: 0
Hepatotoxicity [4]
  HepSE_hepatomegaly: 1
Hepatotoxicity [5]
  HepSE_liver fatty: 0
Hepatotoxicity [6]
  HepSE_bilirubinemia: 1
Hepatotoxicity [7]
  HepSE_cholecystitis: 1
Hepatotoxicity [8]
  HepSE_jaundice: 1
Hepatotoxicity [9]
  HepSE_Combined Scores: 10
Hepatotoxicity [10]
  HepSE_liver function tests abnormal: 1
Hepatotoxicity [11]
  HepSE_elevated liver function tests: 1
Hepatotoxicity [12]
  HepSE_hepatitis: 1
Hepatotoxicity [13]
  HepSE_hepatic failure: 1
Hepatotoxicity [14]
  HepSE_cirrhosis: 0

## CC(=O)CC(c1ccccc1)c1c(O)c2ccccc2oc1=O (centres undefined) [WARFARIN]
Hepatotoxicity [1]
  HepSE_cholelithiasis: 0
Hepatotoxicity [2]
  HepSE_liver disease: 0
Hepatotoxicity [3]
  HepSE_hepatic necrosis: 0
Hepatotoxicity [4]
  HepSE_hepatomegaly: 0
Hepatotoxicity [5]
  HepSE_liver fatty: 0
Hepatotoxicity [6]
  HepSE_bilirubinemia: 0
Hepatotoxicity [7]
  HepSE_cholecystitis: 0
Hepatotoxicity [8]
  HepSE_jaundice: 1
Hepatotoxicity [9]
  HepSE_Combined Scores: 2
Hepatotoxicity [10]
  HepSE_liver function tests abnormal: 0
Hepatotoxicity [11]
  HepSE_elevated liver function tests: 0
Hepatotoxicity [12]
  HepSE_hepatitis: 1
Hepatotoxicity [13]
  HepSE_hepatic failure: 0
Hepatotoxicity [14]
  HepSE_cirrhosis: 0

Source: ChEMBL document CHEMBL1909294, “Translating clinical findings into knowledge in drug safety evaluation--drug induced liver injury prediction system (DILIps)” (PLoS Comput Biol, 2011)
